Measured values reported in US20090304692A1, “TRIAZINE COMPOUNDS AS PI3 KINASE AND MTOR INHIBITORS” (Wyeth, priority 2008, published 2009).
Values joined by “and” are separate entries in the source; they are usually repeats but may differ in a detail not shown here. Equal entries are not always repeated. Where two headings read alike, the source gives them in different places.

Columns and labels:
PI3K-α = PI3K-α (Homo sapiens, UniProt P42336); assay: PI3K-alpha fluorescence polarization assay; conditions: read-out: IC50 PI3Kα
PI3K-γ = PI3K-γ (Homo sapiens, UniProt P48736); assay: PI3K-gamma fluorescence polarization assay; conditions: read-out: IC50 PI3Kγ
Human mTOR (FLAG-TOR) = Human mTOR (FLAG-TOR) (Homo sapiens, UniProt P42345); assay: mTOR kinase assay (DELFIA format, purified enzyme); format: biochemical; conditions: read-out: IC50 mTOR
[1] = system: human prostate LNCap tumor cell line; assay: In vitro cell culture growth assay (MTS), LNCap; conditions: Homo sapiens, LNCaP, 72 h, read-out: IC50 LNCap

PI3K-α, sequence (P42336 whole entry, species assumed): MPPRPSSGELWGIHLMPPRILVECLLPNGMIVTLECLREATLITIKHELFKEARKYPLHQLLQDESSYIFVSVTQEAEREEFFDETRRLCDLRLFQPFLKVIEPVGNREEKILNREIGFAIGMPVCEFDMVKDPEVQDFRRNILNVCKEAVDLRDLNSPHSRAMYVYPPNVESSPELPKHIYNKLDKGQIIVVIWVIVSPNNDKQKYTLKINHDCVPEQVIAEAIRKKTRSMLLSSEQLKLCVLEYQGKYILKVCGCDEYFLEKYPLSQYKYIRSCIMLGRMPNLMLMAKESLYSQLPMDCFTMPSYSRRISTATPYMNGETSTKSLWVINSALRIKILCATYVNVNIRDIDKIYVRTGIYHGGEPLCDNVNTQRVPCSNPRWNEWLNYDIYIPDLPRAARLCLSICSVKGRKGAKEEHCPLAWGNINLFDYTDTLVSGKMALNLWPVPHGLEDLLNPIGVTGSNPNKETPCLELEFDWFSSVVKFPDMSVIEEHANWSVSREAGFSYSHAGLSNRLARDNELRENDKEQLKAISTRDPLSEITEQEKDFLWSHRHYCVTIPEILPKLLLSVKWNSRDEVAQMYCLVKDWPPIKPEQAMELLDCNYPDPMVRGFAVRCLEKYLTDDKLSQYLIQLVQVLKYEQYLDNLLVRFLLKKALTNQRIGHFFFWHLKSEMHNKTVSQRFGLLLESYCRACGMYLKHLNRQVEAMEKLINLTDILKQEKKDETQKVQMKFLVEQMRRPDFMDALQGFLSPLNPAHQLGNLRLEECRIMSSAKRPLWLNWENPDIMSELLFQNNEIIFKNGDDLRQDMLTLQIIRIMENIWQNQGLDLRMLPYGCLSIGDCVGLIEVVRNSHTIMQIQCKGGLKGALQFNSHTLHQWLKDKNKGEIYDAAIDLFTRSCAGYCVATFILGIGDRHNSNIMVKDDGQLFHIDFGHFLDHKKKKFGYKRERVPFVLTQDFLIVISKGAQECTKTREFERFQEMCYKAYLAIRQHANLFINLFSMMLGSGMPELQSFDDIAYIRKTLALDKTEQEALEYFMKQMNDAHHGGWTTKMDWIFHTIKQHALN
PI3K-α, sequence (P27986 whole entry partner, species assumed): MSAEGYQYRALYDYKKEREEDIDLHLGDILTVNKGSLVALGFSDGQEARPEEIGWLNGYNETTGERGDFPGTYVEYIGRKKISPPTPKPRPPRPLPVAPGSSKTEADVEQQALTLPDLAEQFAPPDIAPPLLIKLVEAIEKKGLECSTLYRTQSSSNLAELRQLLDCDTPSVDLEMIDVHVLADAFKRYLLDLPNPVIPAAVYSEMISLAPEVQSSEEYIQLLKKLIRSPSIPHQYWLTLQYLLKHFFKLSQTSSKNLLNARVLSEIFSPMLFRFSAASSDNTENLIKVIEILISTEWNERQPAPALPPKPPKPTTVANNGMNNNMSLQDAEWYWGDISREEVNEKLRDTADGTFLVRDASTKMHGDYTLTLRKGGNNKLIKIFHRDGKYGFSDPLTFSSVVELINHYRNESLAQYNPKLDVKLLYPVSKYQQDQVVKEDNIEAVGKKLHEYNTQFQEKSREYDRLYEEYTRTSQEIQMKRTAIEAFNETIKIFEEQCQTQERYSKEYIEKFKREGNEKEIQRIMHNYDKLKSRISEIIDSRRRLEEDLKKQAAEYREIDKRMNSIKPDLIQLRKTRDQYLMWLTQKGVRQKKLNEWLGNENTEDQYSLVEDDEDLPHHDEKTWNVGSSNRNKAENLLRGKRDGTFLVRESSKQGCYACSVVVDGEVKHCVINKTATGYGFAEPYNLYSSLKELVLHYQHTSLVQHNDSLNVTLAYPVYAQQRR
PI3K-γ, sequence (P48736 whole entry, species assumed): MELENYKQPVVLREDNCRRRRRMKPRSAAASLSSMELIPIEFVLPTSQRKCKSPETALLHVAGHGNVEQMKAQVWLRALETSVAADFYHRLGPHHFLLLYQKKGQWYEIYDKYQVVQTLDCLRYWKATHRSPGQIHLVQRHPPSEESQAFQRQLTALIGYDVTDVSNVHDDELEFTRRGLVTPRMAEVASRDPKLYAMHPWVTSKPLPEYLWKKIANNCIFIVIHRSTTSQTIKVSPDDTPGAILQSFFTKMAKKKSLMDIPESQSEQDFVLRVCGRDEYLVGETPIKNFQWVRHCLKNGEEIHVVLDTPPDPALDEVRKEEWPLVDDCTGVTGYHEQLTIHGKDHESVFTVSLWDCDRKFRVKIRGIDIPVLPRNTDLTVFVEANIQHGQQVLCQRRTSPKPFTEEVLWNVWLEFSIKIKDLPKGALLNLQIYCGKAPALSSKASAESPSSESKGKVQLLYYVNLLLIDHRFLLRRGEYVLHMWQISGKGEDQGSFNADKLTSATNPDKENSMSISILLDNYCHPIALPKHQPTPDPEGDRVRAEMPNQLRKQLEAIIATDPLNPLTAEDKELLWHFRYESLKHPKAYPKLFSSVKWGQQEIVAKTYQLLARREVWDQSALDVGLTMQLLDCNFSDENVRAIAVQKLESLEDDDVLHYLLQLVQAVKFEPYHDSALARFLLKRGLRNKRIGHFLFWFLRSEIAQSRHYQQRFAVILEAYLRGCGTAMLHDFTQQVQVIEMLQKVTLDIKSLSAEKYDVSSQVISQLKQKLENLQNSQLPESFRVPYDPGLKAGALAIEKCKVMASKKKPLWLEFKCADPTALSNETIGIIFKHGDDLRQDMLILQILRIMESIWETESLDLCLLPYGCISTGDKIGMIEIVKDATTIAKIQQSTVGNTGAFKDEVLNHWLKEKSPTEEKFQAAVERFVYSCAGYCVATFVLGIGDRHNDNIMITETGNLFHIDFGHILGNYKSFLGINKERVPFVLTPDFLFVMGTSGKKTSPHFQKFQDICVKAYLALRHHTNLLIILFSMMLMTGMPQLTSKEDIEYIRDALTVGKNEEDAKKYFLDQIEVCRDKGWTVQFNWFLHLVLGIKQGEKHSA
Human mTOR (FLAG-TOR), sequence (P42345 1360-2549 limits assumed): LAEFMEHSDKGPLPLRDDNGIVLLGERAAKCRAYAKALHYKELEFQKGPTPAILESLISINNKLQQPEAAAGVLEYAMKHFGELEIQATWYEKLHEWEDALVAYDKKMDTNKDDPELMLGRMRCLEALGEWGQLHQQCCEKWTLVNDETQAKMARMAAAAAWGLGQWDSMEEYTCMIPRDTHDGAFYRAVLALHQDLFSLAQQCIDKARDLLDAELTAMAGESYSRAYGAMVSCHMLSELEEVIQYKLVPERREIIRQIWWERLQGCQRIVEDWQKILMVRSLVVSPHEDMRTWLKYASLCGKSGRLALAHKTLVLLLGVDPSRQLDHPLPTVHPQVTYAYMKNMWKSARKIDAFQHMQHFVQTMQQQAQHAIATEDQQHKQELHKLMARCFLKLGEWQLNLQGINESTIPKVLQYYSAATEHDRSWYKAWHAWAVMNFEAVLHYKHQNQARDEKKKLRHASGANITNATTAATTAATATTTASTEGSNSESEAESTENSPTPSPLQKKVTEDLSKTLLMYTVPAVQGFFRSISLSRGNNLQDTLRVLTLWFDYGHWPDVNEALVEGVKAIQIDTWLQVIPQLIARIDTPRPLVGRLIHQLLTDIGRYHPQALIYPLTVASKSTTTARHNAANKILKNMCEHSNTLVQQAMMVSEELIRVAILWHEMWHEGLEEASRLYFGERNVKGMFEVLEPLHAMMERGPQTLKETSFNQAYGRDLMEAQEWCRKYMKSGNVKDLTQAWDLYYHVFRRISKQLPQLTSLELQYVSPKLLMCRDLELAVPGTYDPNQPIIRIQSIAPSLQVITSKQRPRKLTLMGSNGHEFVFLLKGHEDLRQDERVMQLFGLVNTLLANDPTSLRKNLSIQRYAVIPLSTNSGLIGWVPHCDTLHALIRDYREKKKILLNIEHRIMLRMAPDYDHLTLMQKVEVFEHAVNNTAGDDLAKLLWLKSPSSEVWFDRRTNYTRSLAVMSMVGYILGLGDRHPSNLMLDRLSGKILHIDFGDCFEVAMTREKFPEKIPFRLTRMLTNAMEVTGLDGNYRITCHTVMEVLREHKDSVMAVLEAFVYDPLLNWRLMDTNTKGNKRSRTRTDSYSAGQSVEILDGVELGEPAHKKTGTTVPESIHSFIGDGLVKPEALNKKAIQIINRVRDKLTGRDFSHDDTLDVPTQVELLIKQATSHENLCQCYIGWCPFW

Structure (SMILES) | IC50 (PI3K-α) [µM] | IC50 (PI3K-γ) [µM] | IC50 (Human mTOR (FLAG-TOR)) | IC50 [1] [µM] | IC50 (PI3K-α; listed as 358) [µM] | IC50 (PI3K-γ; listed as 358) [µM] | IC50 (PI3K-α; listed as 335) [µM] | IC50 (PI3K-γ; listed as 335) [µM] | IC50 (PI3K-α; listed as 354) [µM] | IC50 (PI3K-γ; listed as 354) [µM]
C[C@H](CO)Nc1nc(-c2ccc(NC(=O)Nc3cccnc3)cc2)nc(N2CC3CCC(C2)O3)n1 [Example 260, 1-{4-[4-{[(1R)-2-hydroxy-1-methylethyl]amino}-6-(8-oxa-3-azabicyclo[3.2.1]oct-3-yl)-1,3,5-triazin-2-yl]phenyl}-3-pyridin-3-ylurea] | 0.417 | 4.73 | 0.0009 µM | 0.38 |  |  |  |  |  | 
C[C@@H]1COCCN1c1nc(-c2ccc(NC(=O)Nc3ccc(OCCN(C)C)cc3)cc2)nc(C2CCOCC2)n1 [Example 427, (R)-1-(4-(2-(dimethylamino)ethoxy)phenyl)-3-(4-(4-(3-methylmorpholino)-6-(tetrahydro-2H-pyran-4-yl)-1,3,5-triazin-2-yl)phenyl)urea] | 0.58 | 1.42 | 0.0013 µM | 0.007 |  |  |  |  |  | 
CN1CCN(c2ccc(Nc3nc(-c4ccc(NC(=O)NCCF)cc4)nc(N4CC5CCC(C4)O5)n3)cc2)CC1 [Example 315, 1-(2-fluoroethyl)-3-{4-[4-{[4-(4-methylpiperazin-1-yl)phenyl]amino}-6-(8-oxa-3-azabicyclo[3.2.1]oct-3-yl)-1,3,5-triazin-2-yl]phenyl}urea] | 1.1 | 7.9 | 0.005 µM and 0.0058 µM | 0.3 |  |  |  |  |  | 
C[C@@H]1COCCN1c1nc(-c2ccc(NC(=O)Nc3ccc(N4CCN(C)CC4)cc3)cc2)nc(N2C[C@@H]3C[C@H]2CO3)n1 [Example 412, 1-(4-(4-((1S,4S)-2-oxa-5-azabicyclo[2.2.1]heptan-5-yl)-6-((R)-3-methylmorpholino)-1,3,5-triazin-2-yl)phenyl)-3-(4-(4-methylpiperazin-1-yl)phenyl)urea] | 1.23 | 7.48 | 0.0073 µM | 0.025 |  |  |  |  |  | 
O=C(Nc1ccc(-c2nc(Nc3ccc(N4CCNCC4)cc3)nc(N3CC4CCC(C3)O4)n2)cc1)NC1CC1 [Example 326, 1-cyclopropyl-3-(4-{4-(8-oxa-3-azabicyclo[3.2.1]oct-3-yl)-6-[(4-piperazin-1-ylphenyl)amino]-1,3,5-triazin-2-yl}phenyl)urea] | 0.83 | 6.19 | 0.0122 µM and 0.012 µM | 0.58 |  |  |  |  |  | 
CN(C)CCN(C)C(=O)c1ccc(NC(=O)Nc2ccc(-c3nc(C4CCOCC4)nc(N4C5CCC4COC5)n3)cc2)cc1 [Example 459, 4-(3-(4-(4-(3-oxa-8-azabicyclo[3.2.1]octan-8-yl)-6-(tetrahydro-2H-pyran-4-yl)-1,3,5-triazin-2-yl)phenyl)ureido)-N-(2-(dimethylamino)ethyl)-N-methylbenzamide] | 0.026 | 0.483 | 0.0003 µM | < 0.0008 |  |  |  |  |  | 
NC(=O)c1ccc(NC(=O)Nc2ccc(-c3nc(Nc4ccc(N5CCNCC5)cc4)nc(N4CC5CCC(C4)O5)n3)cc2)cc1 [Example 329, 4-{[(4-{4-(8-oxa-3-azabicyclo[3.2.1]oct-3-yl)-6-[(4-piperazin-1-ylphenyl)amino]-1,3,5-triazin-2-yl}phenyl)carbamoyl]amino}benzamide] | 0.0095 | 0.385 | 0.00068 µM | 5.9 | 0.009 | 0.363 |  |  |  | 
NCCNc1nc(-c2ccc(NC(=O)Nc3cccnc3)cc2)nc(N2CC3CCC(C2)O3)n1 [Example 149, 1-(4-{4-[(2-aminoethyl)amino]-6-(8-oxa-3-azabicyclo[3.2.1]oct-3-yl)-1,3,5-triazin-2-yl}phenyl)-3-pyridin-3-ylurea] | 0.889 | 1.4 | 0.08 µM | 32 |  |  |  |  |  | 
C[C@@H](CO)Nc1nc(-c2ccc(NC(=O)Nc3cccnc3)cc2)nc(N2CC3CCC(C2)O3)n1 [Example 259, 1-{4-[4-{[(1S)-2-hydroxy-1-methylethyl]amino}-6-(8-oxa-3-azabicyclo[3.2.1]oct-3-yl)-1,3,5-triazin-2-yl]phenyl}-3-pyridin-3-ylurea] | 0.408 | 5.41 | 0.0024 µM | 0.58 |  |  |  |  |  | 
COC(=O)N1CCN(c2nc(-c3ccc(NC(=O)Nc4ccncc4)cc3)nc(N3CC4CCC(C3)O4)n2)CC1 [Example 114, Methyl 4-[4-(8-oxa-3-azabicyclo[3.2.1]oct-3-yl)-6-{4-[(pyridin-4-ylcarbamoyl)amino]phenyl}-1,3,5-triazin-2-yl]piperazine-1-carboxylate] | 0.106 | 1.18 | 0.00315 µM | 0.038 |  |  |  |  |  | 
CNc1nc(-c2ccc(NC(=O)Nc3cccnc3)cc2)nc(N2CC3CCC(C2)O3)n1 [Example 190, 1-{4-[4-(methylamino)-6-(8-oxa-3-azabicyclo[3.2.1]oct-3-yl)-1,3,5-triazin-2-yl]phenyl}-3-pyridin-3-ylurea] | 0.78 | 1.32 | 0.0063 µM | 0.95 |  |  |  |  |  | 
O=C(NCCF)Nc1ccc(-c2nc(Nc3ccc(N4CCNCC4)cc3)nc(N3CC4CCC(C3)O4)n2)cc1 [Example 327, 1-(2-fluoroethyl)-3-(4-{4-(8-oxa-3-azabicyclo[3.2.1]oct-3-yl)-6-[(4-piperazin-1-ylphenyl)amino]-1,3,5-triazin-2-yl}phenyl)urea] | 0.394 | 5.9 | 0.0063 µM | 0.4 |  |  |  |  |  | 
C[C@@H]1COCCN1c1nc(-c2ccc(NC(=O)Nc3ccc(CN4CCCC4)cc3)cc2)nc(N2C3CCC2COC3)n1 [Example 418, 1-(4-(4-(3-oxa-8-azabicyclo[3.2.1]octan-8-yl)-6-((R)-3-methylmorpholino)-1,3,5-triazin-2-yl)phenyl)-3-(4-(pyrrolidin-1-ylmethyl)phenyl)urea] | 0.52 | 3.48 | 0.0015 µM | 0.04 |  |  |  |  |  | 
CN1CCN(c2nc(-c3ccc(NC(=O)Nc4ccncc4)cc3)nc(N3CC4CCC(C3)O4)n2)CC1 [Example 108, 1-{4-[4-(4-methylpiperazin-1-yl)-6-(8-oxa-3-azabicyclo[3.2.1]oct-3-yl)-1,3,5-triazin-2-yl]phenyl}-3-pyridin-4-ylurea] | 0.586 | 4.15 | 0.019 µM | 0.32 |  |  |  |  |  | 
CN1CCN(c2ccc(NC(=O)Nc3ccc(-c4nc(N5CC6CCC(C5)O6)nc(N5CC6CCC(C5)O6)n4)cc3)cc2)CC1 [Example 28, 1-[4-(4,6-di-8-oxa-3-azabicyclo[3.2.1]oct-3-yl-1,3,5-triazin-2-yl)phenyl]-3-[4-(4-methylpiperazin-1-yl)phenyl]urea] | 0.054 | 5.55 | 0.00095 µM | 0.0024 |  |  |  |  |  | 
CN(C)CCNC1CCN(c2nc(-c3ccc(NC(=O)Nc4ccncc4)cc3)nc(N3CC4CCC(C3)O4)n2)CC1 [Example 120, 1-{4-[4-(4-{[2-(dimethylamino)ethyl]amino}piperidin-1-yl)-6-(8-oxa-3-azabicyclo[3.2.1]oct-3-yl)-1,3,5-triazin-2-yl]phenyl}-3-pyridin-4-ylurea] | 0.262 | 1.55 | 0.079 µM | 1.2 |  |  |  |  |  | 
NCCCCOc1nc(-c2ccc(NC(=O)Nc3cccnc3)cc2)nc(N2CC3CCC(C2)O3)n1 [Example 181, 1-{4-[4-(4-aminobutoxy)-6-(8-oxa-3-azabicyclo[3.2.1]oct-3-yl)-1,3,5-triazin-2-yl]phenyl}-3-pyridin-3-ylurea] | 0.426 | 6.73 | 0.011 µM | 3.4 |  |  |  |  |  | 
CN1CCN(c2ccc(Nc3nc(-c4ccc(NC(=O)Nc5ccccc5)cc4)nc(N4CC5CCC(C4)O5)n3)cc2)CC1 [Example 319, 1-{4-[4-{[4-(4-methylpiperazin-1-yl)phenyl]amino}-6-(8-oxa-3-azabicyclo[3.2.1]oct-3-yl)-1,3,5-triazin-2-yl]phenyl}-3-phenylurea] | 0.08 | 1.45 | 0.0044 µM and 0.004 µM | 0.22 |  |  | 0.081 | 0.144 |  | 
CC(C)Nc1nc(-c2ccc(NC(=O)Nc3ccc(CN)cc3)cc2)nc(N2C3CCC2COC3)n1 [Example 382, 1-(4-(4-(3-oxa-8-azabicyclo[3.2.1]octan-8-yl)-6-(isopropylamino)-1,3,5-triazin-2-yl)phenyl)-3-(4-(aminomethyl)phenyl)urea] | 0.522 | 4.31 | 0.0045 µM | 0.048 |  |  |  |  |  | 
CNC(=O)Nc1ccc(-c2nc(OC(COC)COC)nc(N3CC4CCC(C3)O4)n2)cc1 [Example 177, 1-(4-{4-[2-methoxy-1-(methoxymethyl)ethoxy]-6-(8-oxa-3-azabicyclo[3.2.1]oct-3-yl)-1,3,5-triazin-2-yl}phenyl)-3-methylurea] | 5.84 | 4.12 | 0.0016 µM | 0.6 |  |  |  |  |  | 
CNC(=O)Nc1ccc(-c2nc(Nc3ccc(N4CCNCC4)cc3)nc(N3CC4CCC(C3)O4)n2)cc1 [Example 325, 1-methyl-3-(4-{4-(8-oxa-3-azabicyclo[3.2.1]oct-3-yl)-6-[(4-piperazin-1-ylphenyl)amino]-1,3,5-triazin-2-yl}phenyl)urea] | 0.074 | 6.24 | 0.0046 µM | 0.31 |  |  |  |  | 0.069 | 6.22
CC(C)Nc1nc(-c2ccc(NC(=O)Nc3ccc(C(=O)NN4CCCC4)cc3)cc2)nc(N2CC3CCC(C2)O3)n1 [Example 219, 4-{[(4-{4-[(1-methylethyl)amino]-6-(8-oxa-3-azabicyclo[3.2.1]oct-3-yl)-1,3,5-triazin-2-yl}phenyl)carbamoyl]amino}-N-pyrrolidin-1-ylbenzamide] | 0.561 | 8.28 | 0.0059 µM | 0.04 |  |  |  |  |  | 
